Where a name gives a salt, the structure may show the parent alone. Read-outs that look alike come from different tables or passages of the source.
Assays:
[1] = Tolerability in mice (oral and intravenous); parameters: species or system mouse (Male Albino Swiss); settings: mouse, in vivo, monitored 7 days
Protocol: Male Albino Swiss mice weighing 22-24 g were used in this test.
One group of animals (4/does) which had been kept fasting for 18 hours was orally administered the compounds dissolved in twice distilled water. The same compounds dissolved in saline at pH-7 were intravenously injected in a further group of animals which had free access to food and drinking water. All of the animals were monitored for 7 days.

Hypertensive SHR rats = assay: Non-invasive measure of arterial pressure in genetically hypertensive (SHR) rats; type: in vivo, rat (male SHR); settings: oral, 40 mg/kg
Protocol: Male SHR rats (Charles River) of 4-6 months were used in this test. The compounds listed were dissolved in either 0.9% saline or twice distilled water and administered via the oral route (10-40 mg/5 ml/kg).
The animals, housed in individual cages at 23° C. and 60% humidity, had free access to food and drinking water. A BP recorder (Letica) equipped with a two-way polygraph was used. The systolic and diastolic pressure and the heart rate were recorded. The animals, a few days before the test began, were accustomed to be constrained on a heating plate (at 38° C.±1° C. for 20 minutes).
During the pre-tests, assessments were made at time 0 (8^30 -9^30 a.m.) and after 2 and 4 hours.
Every assessment was the average of 3-5 measures and the maximum residence time of the animal in the thermostatized chamber (for the whole test duration) was 40 minutes; the time interval between administrations of different doses of the same compound was 3 days.
(§1) Student's "t" test was used for assessing the differences with respect to the control group and its own 0 time.

Hypertensive DOCA rats = assay: Non-invasive measure of arterial pressure in rats made hypertensive (DOCA); type: in vivo, rat (male Wistar); settings: oral, 40 mg/kg, 2-4 hours
Protocol: Male Wistar rats (Charles River) of 4 months were used in this test.
The compounds listed were solubilized in twice distilled water and administered via the oral route (40 mg/5 ml/kg).
The animals, housed in individual cages at 23° C. and 60% humidity, had free access to food and were made to drink 1% saline solution. The animals were administered 20 mg/kg s.c. of deoxycorticosterone acetate (DOCA) for 14 days on end.
A BP recorder (Letica) equipped with a two-way polygraph was used. The systolic and diastolic pressure, and the heart rate were recorded. The animals, a few days before the test began, were accustomed to be constrained on a heating plate (at 38° C.±1° C. for 20 minutes).
During the pre-test, assessments were made at time 0 (8^30 -9^30 a.m.) and after 2 and 4 hours.
Every assessment was the average of 3-5 measures and the maximum residence time of animal in the thermostatized chamber (for the whole test duration) was 40 minutes; the time interval between administrations of different doses of the same compound was 3 days.
as §1

[2] = LD50 in mice (intravenous); settings: mouse, in vivo, Weil's method
Protocol: LD50 was assessed according to the Carrol S. Weil's method (Biometrics, pages 249-263 (1952)) on male Albino Swiss mice weighing 22-24 g. The compounds dissolved in […] solution were administered via the intravenous route.

Normotensive cats [3] = assay: Measure of arterial pressure in normotensive cats; type: in vivo, cat; settings: anesthetized cats, crural vein
Protocol: Normotensive cats of either sex weighing 2.5-3.5 kgs were used in this test.
The animals fasted for 18 hours were anesthetized with Na Nembutal (30 mg/kg) and ethyl urethane (300 mg/kg i.p.). The crural vein and artery of the animals were cannulated, the former for administering the compounds, the latter for monitoring the arterial pressure. The arterial pressure was measured via a mercury gauge connected to a rotating kymograph.
The compounds were dissolved in sterile 0.9% saline and administered at physiological pH in a 0.5 ml/kg volume.

Normotensive cats [4] = assay: Measure of arterial pressure in normotensive cats; type: in vivo, cat; settings: dose 40 mg (os); entry (1)
[5] = intravenous, read-out: Tolerability, i.v.
[6] = oral, fasted 18 hours, read-out: Tolerability, os

Row | SMILES | MTD at 168 h [1, 5] [mg/kg] | MTD at 168 h [1, 6] [mg/kg] | LD50 [2] [mg/kg] | other results
1 | COc1cc2c(cc1OC)CC(NCC(O)c1ccccc1)CC2 (stereo not shown) [ST 579, 2-[(N-2-phenyl-2-ethanol)amino]-6,7-dimethoxy tetraline hydrochloride] | > 20 | > 50 | 35.7 | Arterial pressure in hypertensive SHR rats (Hypertensive SHR rats; 2 hours): -26 mm Hg; Arterial pressure in hypertensive DOCA rats (Hypertensive DOCA rats): -20 mm Hg
2 | CCCN(CC(O)c1ccccc1)C1CCc2cc(OC)c(OC)cc2C1 (stereo not shown) [ST 566, 2-[(N-propyl,N-phenyl-2-ethanol)amino]-6,7-dimethoxy tetraline hydrochloride] | > 20 | > 50 |  | 
3 | CCN(CC(O)c1ccc(C(F)(F)F)cc1)C1CCc2cc(OC)c(OC)cc2C1 (stereo not shown) [ST 592, 2-[(N-ethyl, N-2-p-trifluoromethylphenyl-2-ethanol)-amino]-6,7-dimethoxy tetraline hydrochloride] | > 30 | > 50 |  | 
4 | COc1cc2c(cc1OC)CC(NCC(O)c1ccc(F)cc1)CC2 (stereo not shown) [ST 593, 2-[(N-2-p-fluorophenyl-2-ethanol)amino]-6,7-dimethoxy tetraline hydrochloride] | > 50 | > 50 |  | Arterial pressure in normotensive cats, hypotension (Normotensive cats [3]; dose 1 mg/kg): 12 mm Hg; Arterial pressure in normotensive cats, hypotension (Normotensive cats [3]; dose 2 mg/kg): 16 mm Hg; Arterial pressure in normotensive cats, hypotension (Normotensive cats [3]; dose 4 mg/kg): 26 mm Hg; Times of effect duration (hypotension in normotensive cats) (Normotensive cats [3]; dose 1-2-4 mg/kg): M/B
5 | CCN(CCc1ccccc1)C1CCc2cc(OC)c(OC)cc2C1 (stereo not shown) [ST 577, 2-[(N-ethyl, N-2-phenylethyl)amino]-6,7-dimethoxy tetraline hydrochloride] | > 20 | > 50 | 35.7 | Arterial pressure in normotensive cats, hypotension (Normotensive cats [3]; dose 1 mg/kg): 20 mm Hg; Times of effect duration (hypotension in normotensive cats) (Normotensive cats [3]; dose 1 mg/kg): L (long >30 minutes); Arterial pressure in normotensive cats, hypotension (Normotensive cats [3]; dose 2 mg/kg): 44 mm Hg; Times of effect duration (hypotension in normotensive cats) (Normotensive cats [3]; dose 2 mg/kg): M (average ≤30 minutes)
6 | COc1ccc(C(O)CN(CC2CC2)C2CCc3cc(OC)c(OC)cc3C2)cc1 (stereo not shown) [ST 565, 2-[(N-methylcyclopropyl, N-p-methoxy-phenyl-2-ethanol)amino]-6,7-dimethoxy tetraline hydrochloride] |  | > 50 |  | 
7 | COc1cc2c(cc1OC)CC(NCC(OC)c1ccccc1)CC2 (stereo not shown) [ST 600, 2-[(N-2-phenyl-2-methoxyethyl)amino]-6,7-dimethoxy tetraline hydrochloride] | > 20 | > 50 | 29.7 | Arterial pressure in normotensive cats, hypotension (Normotensive cats [3]; dose 2 mg/kg): 28 mm Hg; Times of effect duration (hypotension in normotensive cats) (Normotensive cats [3]; dose 2 mg/kg): B (short <5 minutes); Arterial pressure in normotensive cats, hypotension (Normotensive cats [3]; dose 4 mg/kg): 54 mm Hg; Times of effect duration (hypotension in normotensive cats) (Normotensive cats [3]; dose 4 mg/kg): M (average ≤30 minutes)
8 | COc1cc2c(cc1OC)CC(N(CC1CC1)CC(O)c1ccc(C)cc1)CC2 (stereo not shown) [ST 574, 2-[(N-methylcyclopropyl, N-p-methylphenyl-2-ethanol)amino]-6,7-dimethoxy tetraline hydrochloride] | > 30 | > 50 |  | Times of effect duration (hypotension in normotensive cats) (Normotensive cats [3]; dose 1-2-4 mg/kg): M/B
9 | CCCN(CC(O)c1ccc(C)cc1)C1CCc2cc(OC)c(OC)cc2C1 (stereo not shown) [ST 571, 2-[(N-propyl,N-2-p-methylphenyl-2-ethanol)amino]-6,7-dimethoxy tetraline hydrochloride] | > 30 | > 50 | 42.3 | Times of effect duration (hypotension in normotensive cats) (Normotensive cats [3]; dose 1-2-4 mg/kg): M/B
10 | COc1cc2c(cc1OC)CC(NCC(O)c1ccc(C(F)(F)F)cc1)CC2 (stereo not shown) [ST 590, 2-[(N-2-p-trifluoromethylphenyl-2-ethanol)amino]6,7-dimethoxy tetraline hydrochloride] | > 50 | > 50 |  | Arterial pressure in normotensive cats, hypotension (Normotensive cats [4]): 39 mm Hg; Times of effect duration (hypotension in normotensive cats) (Normotensive cats [4]): L (long >30 minutes)
11 | CCN(CC(O)c1ccccc1)C1CCc2cc(OC)c(OC)cc2C1 (stereo not shown) [ST 570, 2-[(N-ethyl, N-2-phenyl-2-ethanol)amino]-6,7-dimethoxy tetraline hydrochloride] | > 20 | > 50 | 34.9 | Arterial pressure in normotensive cats, hypotension (Normotensive cats [3]; dose 1 mg/kg): 64 mm Hg; Times of effect duration (hypotension in normotensive cats) (Normotensive cats [3]; dose 1 mg/kg): L (long >30 minutes); Arterial pressure in hypertensive SHR rats (Hypertensive SHR rats; 2 hours): -29 mm Hg
12 | COc1ccc(C(O)CNC2CCc3cc(OC)c(OC)cc3C2)cc1 (stereo not shown) [ST 578, 2-[(N-2-p-methoxyphenyl-2-ethanol)amino]-6,7-dimethoxy tetraline hydrochloride] | > 15 | > 50 | 27.7 | Times of effect duration (hypotension in normotensive cats) (Normotensive cats [3]; dose 1-2-4 mg/kg): B/L; Arterial pressure in hypertensive SHR rats (Hypertensive SHR rats; 3 hours): -40 mm Hg; Arterial pressure in hypertensive SHR rats (Hypertensive SHR rats; 5 hours): -27 mm Hg
13 | COc1cc2c(cc1OC)CC(N(CC1CC1)CC(O)c1ccccc1)CC2 (stereo not shown) [ST 567, 2-[(N-methylcyclopropyl, N-phenyl-2-ethanol)amino]-6,7-dimethoxy tetraline hydrochloride] | > 15 | > 50 | 30.2 | 
14 | COc1cc2c(cc1OC)CC(NCC(O)c1ccc(O)cc1)CC2 (stereo not shown) [ST 558, 2-[(N-2-p-hydroxyphenyl-2-ethanol)amino]-6,7-dimethoxy tetraline hydrochloride] | > 50 | > 50 |  | Arterial pressure in hypertensive SHR rats (Hypertensive SHR rats; 3 hours): -13 mm Hg; Arterial pressure in hypertensive SHR rats (Hypertensive SHR rats; 5 hours): -31 mm Hg
15 | COc1cc2c(cc1OC)CC(NCC(O)c1ccc(C)cc1)CC2 (stereo not shown) [ST 563, 2-[(N-2-p-methylphenyl-2-ethanol)amino]-6,7-dimethoxy tetraline] | > 20 | > 50 | 35.7 | Arterial pressure in hypertensive SHR rats (Hypertensive SHR rats; 2 hours): -65 mm Hg

— patent US5047433A, “N-alkyl derivatives of 2-amino-6,7-dimethoxy tetraline and pharmaceutical compositions having antihypertensive activity containing same” (Sigma-Tau Industrie Farmaceutiche Riunite S.p.A., priority 1986, dated 1991)
